In patent US20260083704A1, “LXR MODULATORS WITH BICYCLIC CORE MOIETY FOR TREATING DYSLIPIDEMIAS” (OrsoBio, Inc., priority 2022, published 2026):

Columns and labels:
[1] = target: T1, GST-LXRβ ligand-binding domain (Homo sapiens, UniProt P55055); test: TR-FRETβ activity assay (NCoA3 coactivator peptide recruitment); assay type: biochemical; settings: 1 μM 24(S)-25-epoxycholesterol prestimulation
T1 construct: amino acids 156-461; NP009052; made in house; host or cells: E. coli
T1 sequence (P55055 156-460 limits assumed): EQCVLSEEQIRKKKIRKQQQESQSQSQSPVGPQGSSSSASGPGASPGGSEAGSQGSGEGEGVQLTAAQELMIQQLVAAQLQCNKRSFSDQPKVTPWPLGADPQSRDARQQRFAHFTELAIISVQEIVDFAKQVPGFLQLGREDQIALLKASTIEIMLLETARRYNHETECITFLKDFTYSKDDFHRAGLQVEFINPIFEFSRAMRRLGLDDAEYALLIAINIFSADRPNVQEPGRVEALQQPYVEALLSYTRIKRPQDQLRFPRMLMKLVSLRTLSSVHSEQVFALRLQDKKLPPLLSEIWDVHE
Experimental: Recombinant GST-LXRβ ligand-binding domain (LBD; amino acids 156-461; NP009052; SEQ ID NO:4) was expressed in E. coli and purified via gluthatione-sepharose affinity chromatography. N-terminally biotinylated NCoA3 coactivator peptide (SEQ ID NO:7) was chemically synthesized (Eurogentec). Assays were done in 384 well format (final assay volume of 25 μL/well) in a Tris/HCl buffer (pH 6.8) containing KCl, bovine serum albumin, Triton-X-100 and 1 μM 24(S)-25-epoxycholesterol as LXR-prestimulating agonist. Assay buffer was provided and test articles (potential LXR inverse agonists) were titrated to yield final assay concentrations of 50 μM, 16.7 μM, 5.6 μM, 1.9 μM, 0.6 μM, 0.2 μM, 0.07 μM, 0.02 μM, 0.007 μM, 0.002 μM with one vehicle control. Finally, a detection mix was added containing anti GST-Tb cryptate (CisBio; 610SAXLB) and Streptavidin-XL665 (CisBio; 610SAXLB) as fluorescent donor and acceptor, respectively, as well as the coactivator peptide and LXRβ-LBD protein (SEQ ID NO:4). The reaction was mixed thoroughly, equilibrated for 1 h at 4° C. and vicinity of LXRβ and coactivator peptide was detected by measurement of fluorescence in a VictorX4 multiplate reader (PerkinElmer Life Science) using 340 nm as excitation and 615 and 665 nm as emission wavelengths. Assays were performed in triplicates.
240 mM KCl, 1 μg/μL BSA, 0.002% Triton-X-100, […] anti GST-Tb cryptate, 2.5 ng/μL Streptavidin-XL665, coactivator peptide (400 nM), LXRβ protein (530 μg/mL, i.e. 76 nM).

[2] = target: T2, LXRβ (Homo sapiens, UniProt P55055); test: LXR Gal4 reporter transient transfection assay (mammalian two-hybrid, HEK293), LXRβ; assay type: cell-based; parameters: LXRβ (amino acids 156-461); expressed in transfected cells; host or cells: HEK293; settings: full length (FL) LXRβ, HEK293; read-out: FL-M2H Gal4β
T2 sequence (P55055 1-460): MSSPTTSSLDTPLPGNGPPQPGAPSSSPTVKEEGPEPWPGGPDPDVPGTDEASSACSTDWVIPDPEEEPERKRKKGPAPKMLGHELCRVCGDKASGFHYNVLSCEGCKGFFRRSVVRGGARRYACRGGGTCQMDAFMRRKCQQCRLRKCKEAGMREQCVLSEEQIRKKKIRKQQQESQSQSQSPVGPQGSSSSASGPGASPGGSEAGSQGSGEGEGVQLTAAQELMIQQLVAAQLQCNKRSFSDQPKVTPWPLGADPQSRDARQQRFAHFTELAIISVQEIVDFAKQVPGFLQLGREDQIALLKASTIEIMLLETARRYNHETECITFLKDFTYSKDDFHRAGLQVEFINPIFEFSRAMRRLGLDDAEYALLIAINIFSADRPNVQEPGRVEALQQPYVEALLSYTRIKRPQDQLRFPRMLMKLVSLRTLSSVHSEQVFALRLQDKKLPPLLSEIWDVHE
Experimental: LXRα and LXRβ activity status was determined via detection of interaction with coactivator and corepressor proteins in mammalian two-hybrid experiments (M2H). For this, via transient transfection the full length (FL) proteins of LXRα (amino acids 1-447; NP005684; SEQ ID NO:1) or LXRβ-(amino acids 1-461; NP009052; SEQ ID NO:2) or the ligand-binding domains (LBD) of LXRα (amino acids 155-447 SEQ ID NO:3) or LXRβ (amino acids 156-461; SEQ ID NO:4) were expressed from pCMV-AD (Stratagene) as fusions to the transcriptional activation domain of NFkB. As cofactors, domains of either the steroid receptor coactivator 1 (SRC1; amino acids 552-887; SEQ ID NO:5) or of the corepressor NCoR (amino acids 1906-2312; NP006302; SEQ ID NO:6) were expressed as fusions to the DNA binding domain of the yeast transcription factor GAL4 (from pCMV-BD; Stratagene). Interaction was monitored via activation of a coexpressed Firefly Luciferase Reporter gene under control of a promoter containing repetitive GAL4 response elements (vector pFRLuc; Stratagene). Transfection efficiency was controlled via cotransfection of constitutively active pRL-CMV Renilla reniformis luciferase reporter (Promega). HEK293 cells were grown in minimum essential medium (MEM) with 2 mM L-glutamine and Earle's balanced salt solution supplemented with 8.3% fetal bovine serum, 0.1 mM non-essential amino acids, 1 mM sodium pyruvate, at 37° C. in 5% CO2. 3.5×10^4 cells/well were plated in 96-well cell culture plates in growth medium supplemented with 8.3% fetal bovine serum for 16-20 h to ˜90% confluency. For transfection, medium was taken off and LXR and cofactor expressing plasmids as well as the reporter plasmids are added in 30 μL OPTIMEM/well including polyethylene-imine (PEI) as vehicle. Typical amounts of plasmids transfected/well: pCMV-AD-LXR (5 ng), pCMV-BD-cofactor (5 ng), pFR-Luc (100 ng), pRL-CMV (0.5 ng). Compound stocks were prepared in DMSO, prediluted in MEM to a total volume of 120 μL, and added 4 h after addition of the transfection mixture (final vehicle concentration not exceeding 0.2%). Cells were incubated for additional 16 h, lysed for 10 min in 1×Passive Lysis Buffer (Promega) and Firefly and Renilla luciferase activities were measured sequentially in the same cell extract using buffers containing D-luciferine and coelenterazine, respectively. Measurements of luminescence were done in a BMG-luminometer.
The potencies of Compound 21/3 and its analog, Compound pre-6/3, against LXRα and LXRβ were evaluated in biochemical binding assays, cellular mammalian two-hybrid (M2H) interaction assays evaluating nuclear receptor co-repressor (NCOR) recruitment, and cellular reporter assays evaluating transcriptional activity (Table 5).

Row | Structure (SMILES) | EC50 [1] [nM] | EC50 [2] [nM]
1 | COc1ccc2c(c1)c(-c1ccsc1C#N)c(-c1cccs1)n2S(=O)(=O)c1ccc(Cl)cc1 [1/39] | > 10000 | 
2 | COC(=O)c1ccc(-c2cccc(-c3c(-c4c(C)cccc4C#N)c4cc(F)ccc4n3S(=O)(=O)c3ccc(C(F)F)cc3)c2)c(Cl)c1 [1/122] | 100 to 1000 | < 100
3 | N#Cc1cccc(C#N)c1-c1c(-c2cccc(Br)c2)n(S(=O)(=O)c2ccc(C(F)F)cc2)c2ccc(F)cc12 [1/139] | 100 to 1000 | < 100
4 | Cc1ccc(S(=O)(=O)n2c(-c3cccc(-c4ccc(CN)cc4Cl)c3)c(-c3ccsc3C#N)c3cc(F)ccc32)cc1 [2/1] | 100 to 1000 | 100 to 1000
5 | Cc1ccc(S(=O)(=O)n2c(-c3cccc(-c4ccc(C(C)(C)N)cc4Cl)c3)c(-c3ccsc3C#N)c3cc(F)ccc32)cc1 [2/2] | 100 to 1000 | 100 to 1000
6 | Cc1ccc(S(=O)(=O)n2c(-c3cccc(-c4cc(F)c(CO)c(S(C)(=O)=O)c4)c3)c(-c3ccsc3C#N)c3cc(F)ccc32)cc1 [2/16] | < 100 | < 100
7 | Cc1ccc(S(=O)(=O)n2c(-c3cccc(-c4ccc(C(C)(C)C(=O)O)c(S(C)(=O)=O)c4)c3)c(-c3ccsc3C#N)c3cc(F)ccc32)cc1 [2/18] | 100 to 1000 | < 100
8 | Cc1ccc(S(=O)(=O)n2c(-c3cccc(C4(C)CC4C(=O)O)c3)c(-c3ccsc3C#N)c3cc(F)ccc32)cc1 (centres unmarked) [3/1] | 100 to 1000 | 100 to 1000
9 | Cc1ccc(S(=O)(=O)n2c(-c3cccc(C4(C)CC4C(=O)O)c3)c(-c3ccsc3C#N)c3cc(F)ccc32)cc1 (centres unmarked) [3/2] | 1000 to 10000 | < 100
10 | COc1sccc1-c1c(-c2cccc(N3CC(C(=O)O)C3)c2)n(S(=O)(=O)c2ccc(C)cc2)c2ccc(F)cc12 [3/3] | 1000 to 10000 | 100 to 1000
11 | Cc1ccc(S(=O)(=O)n2c(-c3cccc(N4CC(C(=O)O)C4)c3)c(-c3ccsc3C(F)F)c3cc(F)ccc32)cc1 [3/4] | 100 to 1000 | < 100
12 | Cc1ccc(S(=O)(=O)n2c(-c3cccc(N4CC(C(=O)O)C4)c3)c(-c3ccsc3C=O)c3cc(F)ccc32)cc1 [3/5] | 100 to 1000 | 100 to 1000
13 | COCc1sccc1-c1c(-c2cccc(N3CC(C(=O)O)C3)c2)n(S(=O)(=O)c2ccc(C)cc2)c2ccc(F)cc12 [3/6] | 1000 to 10000 | 100 to 1000
14 | Cc1ccc(S(=O)(=O)n2c(-c3cccc(N4CC(C(=O)O)C4)c3)c(-c3ccsc3/C=N/O)c3cc(F)ccc32)cc1 [3/7] | 1000 to 10000 | < 100
15 | CCc1ccc(S(=O)(=O)n2c(-c3cccc(N4CC(C(=O)O)C4)c3)c(-c3ccsc3C#N)c3cc(F)ccc32)cc1 [3/10] | 100 to 1000 | < 100
16 | N#Cc1sccc1-c1c(-c2cccc(N3CC(C(=O)O)C3)c2)n(S(=O)(=O)c2ccc(OC(F)F)cc2)c2ccc(F)cc12 [3/11] | 1000 to 10000 | 

Row | Structure (SMILES) | EC50 [1] [nM] | EC50 [2] [nM]
17 | N#Cc1sccc1-c1c(-c2cccc(N3CC(C(=O)O)C3)c2)n(S(=O)(=O)c2ccc3c(c2)CCC3)c2ccc(F)cc12 [3/12] | 100 to 1000 | < 100
18 | N#Cc1sccc1-c1c(-c2cccc(N3CC(C(=O)O)C3)c2)n(S(=O)(=O)c2ccc3ccccc3c2)c2ccc(F)cc12 [3/13] | 1000 to 10000 | < 100
19 | Cc1ccc(S(=O)(=O)n2c(-c3cccc(N4CC(C(=O)O)C4)c3)c(-c3ccsc3C#N)c3cc(F)ccc32)c(F)c1 [3/14] | 1000 to 10000 | 100 to 1000
20 | Cc1ccc(S(=O)(=O)n2c(-c3cccc(S(=O)(=O)CC(=O)O)c3)c(-c3ccsc3C#N)c3ccccc32)cc1 [3/15] | 1000 to 10000 | 
21 | CC1CCN(S(=O)(=O)n2c(-c3cccc(-c4ccc(C(=O)O)cc4Cl)c3)c(-c3ccsc3C#N)c3cc(F)ccc32)CC1 [3/21] | 100 to 1000 | < 100
22 | [2H]c1c([2H])c(S(=O)(=O)n2c(-c3cccc(-c4ccc(C(=O)O)cc4Cl)c3)c(-c3ccsc3C#N)c3cc(F)ccc32)c([2H])c([2H])c1C([2H])([2H])[2H] [3/22] | < 100 | < 100
23 | Cc1cc(S(=O)(=O)n2c(-c3cccc(-c4ccc(C(=O)O)cc4Cl)c3)c(-c3ccsc3C#N)c3cc(F)ccc32)ccc1F [3/23] | 100 to 1000 | < 100
24 | Cc1ccc(S(=O)(=O)n2c(-c3cccc(N4CC(C(=O)O)C4)c3)c(-c3sccc3C#N)c3cc(F)ccc32)cc1 [3/25] | 1000 to 10000 | < 100
25 | CC(O)(C(=O)O)c1ccc(-c2cccc(-c3c(-c4c(C#N)cccc4C#N)c4cc(F)ccc4n3S(=O)(=O)c3ccc(C(F)F)cc3)c2)c(Cl)c1 (centres unmarked) [11/60] |  | < 100
26 | N#Cc1sccc1-c1c(-c2cccs2)n(S(=O)(=O)c2ccc(Cl)cc2)c2cc(OCC(=O)O)ccc12 [15/3] | > 10000 | 
27 | N#Cc1sccc1-c1c(-c2ccccc2)n(S(=O)(=O)c2ccc(CC(=O)O)cc2)c2ccccc12 [27/1] | 1000 to 10000 | 
28 | N#Cc1sccc1-c1c(-c2ccccc2)n(S(=O)(=O)c2ccc(-c3cccc(C(=O)O)c3)cc2)c2ccccc12 [27/2] | 1000 to 10000 | 
29 | N#Cc1sccc1-c1c(-c2ccccc2)n(S(=O)(=O)c2ccc(CC(=O)O)s2)c2ccccc12 [27/3] | > 10000 | 
30 | Cn1cnc(S(=O)(=O)n2c(-c3cccc(C4CC4C(=O)O)c3)c(-c3ccsc3C#N)c3ccccc32)c1 (centres unmarked) [30/10] | > 10000 | 
31 | Cc1cccc(C#N)c1-c1c(-c2cccc(-c3ccc(C(=O)O)cc3Cl)c2)n(S(=O)(=O)c2ccc(C(F)F)cc2)c2ccc(F)cc12 [41/1, 2-chloro-3′-(3-(2-cyano-6-methylphenyl)-1-((4-(difluoro-methyl)phenyl)sulfonyl)-5-fluoro-1H-indol-2-yl)-[1,1′-biphenyl]-4-carboxylic acid] | < 100 | 
32 | N#Cc1sccc1-c1c(-c2cccs2)n(S(=O)(=O)c2ccc(Cl)cc2)c2cc(C(=O)O)ccc12 [Compound 19] | > 10000 | 
